Reference: patent US7868204B2, “Inhibitors of histone deacetylase” (MethylGene Inc., priority 2001, dated 2011)
Read-outs that look alike come from different tables or passages of the source. Blank lines part the entries; values can stand above or below the molecule they belong to.

How the values were obtained:
HCT116 cells = experiment: MTT assay; type: cell-based; settings: Homo sapiens
Method in brief: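 Read-out: MTT (0.5 mg/ml final, 4 h) after solubilization in 50% DMF/20% SDS, pH 4.7, with OD translated into cell number via the line's growth curve. Compound treatment lasted 72 h at 37 °C in 5% CO2, starting a day after plating.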

HDAC-1 = HDAC-1 (Homo sapiens, UniProt Q13547); experiment: Human HDAC-1 enzyme inhibition, Assay 2 (Boc-Lys(Ac)-AMC, Fluor-de-Lys fluorescence; compounds 604-617); type: biochemical; settings: read-out: HDAC1 IC50
Experimental: Assay 2. The following protocol was also used to assay the compounds of the invention. In the assay, the buffer used was 25 mM HEPES, pH 8.0, 137 mM NaCl, 2.7 mM […], 1 mM MgCl2 and the substrate was Boc-Lys(Ac)-AMC in a 50 mM stock solution in DMSO. The enzyme stock solution was 4.08 μg/mL in buffer. The compounds were pre-incubated (2 μl in DMSO diluted to 13 μl in buffer for transfer to assay plate) with enzyme (20 μl of 4.08 μg/ml) for 10 minutes at room temperature (35 μl pre-incubation volume). The mixture was pre-incubated for 5 minutes at room temperature. The reaction was started by bringing the temperature to 37° C. and adding […] substrate. Total reaction volume was 50 μl. […] A plate was incubated in the dark for 10 minutes at room temperature before reading (λEx=360 nm, λEm=470 nm, Cutoff filter at 435 nm). Assay 2 was used to measure HDAC activity of compounds 604-617 (Table 5). HDAC activity of the remaining compounds was measured by assay 1.

[1] = tested on: acetyl-H3 in T24 human bladder cancer cells; experiment: Histone H3 acetylation assay (anti-acetyl-H3, Amplex-Red fluorescence, normalized to Alamar Blue); type: cell-based; settings: T-24, 16 h incubation, read-out: H3 Ac t24
Experimental: T24 human bladder cancer cells growing in culture are incubated with HDAC inhibitors for 16 h. Cell viability is determined by adding 10 μl Alamar Blue (BioSource, DAL1100). Cells are washed once with PBS and fixed with methanol precooled to −20° C. for 10 min. The cells are then washed twice in PBS. The fixed cells are blocked with 50 μl of PBS+0.1% Triton X-100. Cells are probed with rabbit-anti-acetyl-H3 (Upstate #06-599) as the primary antibody and then with goat-anti-rabbit-HRP (Sigma #A-0545) as the secondary antibody. Fluorescence is read by fluorometer at Ex: 550, Em: 610, Cutoff: 590 (Auto PMT, 15 reads/well) after addition of Amplex-Red. Fluorescence signal is normalized against cell viability derived from Alamar Blue. Maximum acetylation signal of MS-275 (fluorescence unit) is measured as Emax.

[2] = tested on: acetylated histone H-4 in T24 human bladder cancer cells; experiment: Histone H4 acetylation in whole cells by immunoblots; type: cell-based; settings: 16 h
Method in brief: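 Acetylated histone H4 was quantified by densitometry of ECL-developed immunoblots, probed with a polyclonal antibody, of […] total histone from T24 cultures exposed 16 h to HDAC inhibitors.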

[3] = target: T1, cloned recombinant human HDAC-1 (Homo sapiens, UniProt Q13547); experiment: Human HDAC-1 enzyme inhibition, Assay 1 ([3H]-acetylated histone substrate, scintillation counting); type: biochemical; settings: read-out: Human HDAC-1 IC50
T1 construct: made in house; host or cells: Baculovirus insect cell expression system
Method in brief: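 Activity read as [3H]-acetic acid liberated from labeled substrate, ethyl acetate-extracted and scintillation-counted. Compounds preincubated 30 min at 4° C. with baculovirus-expressed, purified human HDAC-1. Dose-response curves give IC50 as concentration producing fifty percent of maximal inhibition.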

[4] = tested on: HCT116 human colorectal carcinoma cells; experiment: Antitumor activity in HCT116 human colorectal tumor xenograft model in vivo; set-up: species or system BALB/c nude mice; settings: Mus musculus, ip, HCT 116 colorectal tumor model, read-out: % Inhibition of Tumor Growth; for inhibition in vivo at 40 mg/kg: 40 mg/kg i.p.; for inhibition in vivo at 20 mg/kg: 20 mg/kg i.p.
Experimental: Eight to ten week old female BALB/c nude mice (Taconic Labs, Great Barrington, N.Y.) were injected subcutaneously in the flank area with 2×10^6 preconditioned HCT116 human colorectal carcinoma cells. Preconditioning of these cells was done by a minimum of three consecutive tumor transplantations in the same strain of nude mice. Subsequently, tumor fragments of approximately 30 mgs were excised and implanted subcutaneously in mice, in the left flank area, under Forene anesthesia (Abbott Labs, Geneve, Switzerland). When the tumors reached a mean volume of 100 mm^3, the mice were treated intravenously, subcutaneously, or intraperitoneally by daily injection, with a solution of the histone deacetylase inhibitor in an appropriate vehicle, such as PBS, DMSO/water, or Tween 80/water, at a starting dose of 10 mg/kg. The optimal dose of the HDAC inhibitor was established by dose response experiments according to standard protocols. Tumor volume was calculated every second day post infusion according to standard methods (e.g., Meyer et al., Int. J. Cancer 43: 851-856 (1989)). […] FIGS. 2-10 show the results of additional compounds tested.

[5] = HCT-116, 72 h, Table 5a, HCT116 cells, 72 hours
[6] = T-24, Table 5a, read-out: H4Ac (T24) EC50
[7] = HCT-116, 72 h, Table 5E, HCT116 cells, 72 hours
[8] = T-24, Table 5E, read-out: H4 Ac (T24) EC50
[9] = HCT-116, 72 h, Table 5c, HCT116 cells, 72 hours
[10] = T-24, Table 5c, read-out: H4Ac (T24) EC50

T1 sequence (Q13547 whole entry): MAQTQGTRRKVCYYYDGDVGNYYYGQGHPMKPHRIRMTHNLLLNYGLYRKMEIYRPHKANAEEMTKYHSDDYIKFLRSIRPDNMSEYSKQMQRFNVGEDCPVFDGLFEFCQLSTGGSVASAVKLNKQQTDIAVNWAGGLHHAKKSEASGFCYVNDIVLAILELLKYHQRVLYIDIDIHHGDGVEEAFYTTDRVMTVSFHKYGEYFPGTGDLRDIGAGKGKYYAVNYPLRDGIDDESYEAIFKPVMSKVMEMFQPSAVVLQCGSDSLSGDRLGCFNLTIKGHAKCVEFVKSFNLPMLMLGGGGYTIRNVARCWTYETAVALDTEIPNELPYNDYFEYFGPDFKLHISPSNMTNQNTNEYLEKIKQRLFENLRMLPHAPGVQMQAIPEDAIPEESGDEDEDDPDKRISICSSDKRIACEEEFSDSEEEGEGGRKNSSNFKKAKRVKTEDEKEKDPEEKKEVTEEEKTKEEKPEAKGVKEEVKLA
Sequence of HDAC-1 (Q13547 whole entry): as above

Structure (SMILES): Nc1nc(NCc2ccc(C(=O)Nc3ccccc3N)cc2)nc(N2CCCCC2)n1 [Cpd 15, N-(2-amino-phenyl)-4-[(4-amino-6-piperidin-1-yl [1,3,5]-triazin-2-ylamino)-methyl]-benzamide]
IC50 (HCT116 cells; [5]): 200 nM | EC50 [2, 6]: 3000 nM | IC50 ([3]; Table 5a): 500 nM | inhibition in vivo at 40 mg/kg [4]: 26%

Structure (SMILES): Nc1ccccc1NC(=O)c1ccc(Cn2cnc3ccccc3c2=O)cc1 [Cpd 154, N-(2-Amino-phenyl)-4-(4-oxo-4H-quinazolin-3-ylmethyl)-benzamide]
IC50 (HCT116 cells; [7]): 400 nM | EC50 [2, 8]: < 1000 nM | IC50 ([3]; Table 5E): 300 nM | inhibition in vivo at 20 mg/kg [4]: 23%

Structure (SMILES): COc1ccc(CNc2ccc3cc(C(=O)Nc4ccccc4N)ccc3n2)cc1 [Cpd 87]
IC50 (HCT116 cells; [7]): 1000 nM | EC50 [2, 8]: 5000 nM | IC50 ([3]; Table 5E): 2000 nM | inhibition in vivo at 40 mg/kg [4]: 30%

Structure (SMILES): COc1cc(NCc2ccc(/C=C/C(=O)Nc3ccccc3N)cc2)cc(OC)c1OC [Cpd 106, N-(2-aminophenyl)-3-{4-[(3,4,5-trimethoxy-phenylamino)-methyl]-phenyl}-acrylamide]
IC50 (HCT116 cells; [9]): 2000 nM | EC50 [2, 10]: 1000 nM | inhibition in vivo at 20 mg/kg [4]: 80%

Structure (SMILES): Nc1nc(NCc2ccc(C(=O)Nc3ccccc3N)cc2)nc(N2CCOCC2)n1 [Cpd 9, 4-[(4-amino-6-morpholin-4-yl-[1,3,5]-triazin-2-ylamino)-methyl]-N-(2-amino-phenyl)-benzamide]
IC50 (HCT116 cells; [5]): 700 nM | EC50 [2, 6]: 5000 nM | IC50 ([3]; Table 5a): 2000 nM | inhibition in vivo at 40 mg/kg [4]: 51%

Structure (SMILES): Nc1nc(NCc2ccc(C(=O)Nc3ccccc3N)cc2)nc(NC2CCCC2)n1 [Cpd 16]
IC50 (HCT116 cells; [5]): 400 nM | EC50 [2, 6]: 1000 nM | IC50 ([3]; Table 5a): 1000 nM | inhibition in vivo at 40 mg/kg [4]: 50%

Structure (SMILES): Nc1ccccc1NC(=O)/C=C/c1ccc(NCc2cccc(OC(F)(F)F)c2)nc1 [Cpd 98, N-(2-aminophenyl)-3-[6-(3-trifluoromethoxy-benzylamino)-pyridin-3-yl]-acrylamide]
IC50 (HCT116 cells; [9]): 2000 nM | EC50 [2, 10]: 15000 nM | IC50 ([3]; Table 5c): 400 nM | inhibition in vivo at 20 mg/kg [4]: 52%

Structure (SMILES): Nc1ccccc1NC(=O)c1ccc(CSc2nc3ccccc3[nH]2)cc1 [Cpd 126, N-(2-Amino-phenyl)-4-(1H-benzimidazol-2-ylsulfanylmethyl)-benzamide]
IC50 (HCT116 cells; [7]): 200 nM | EC50 [2, 8]: 1000 nM | inhibition in vivo at 40 mg/kg [4]: 62%

Structure (SMILES): COc1ccc(CCNc2ccc(C(=O)Nc3ccccc3N)cn2)cc1 [Cpd 168]
IC50 (HCT116 cells; [7]): 800 nM | EC50 [2, 8]: 2000 nM | inhibition in vivo at 40 mg/kg [4]: 26%

Structure (SMILES): Nc1ccccc1NC(=O)c1ccc(Cn2c(=O)[nH]c3ccccc3c2=O)cc1 [Cpd 157, N-(2-Amino-phenyl)-4-(2,4-dioxo-1,4-dihydro-2H-quinazolin-3-ylmethyl)-benzamide]
IC50 (HCT116 cells; [7]): 600 nM | EC50 [2, 8]: 1000 nM | inhibition in vivo at 20 mg/kg [4]: 66%

Now from value to molecule, other results behind:

IC50 (HCT116 cells; HCT-116, HCT116 cells): 300 nM | IC50 (HDAC-1): 200 nM
Structure (SMILES): Nc1ccccc1NC(=O)c1ccc(N2CC[C@H](Nc3ccccc3)C2)cc1 [compound 608, (S)-N-(2-aminophenyl)-4-(3-(phenylamino)pyrrolidin-1-yl)benzamide]
EC50 [1]: 200 nM

IC50 (HCT116 cells; HCT-116, HCT116 cells): 700 nM | IC50 (HDAC-1): 230 nM
Structure (SMILES): Nc1ccccc1NC(=O)c1ccc(N2CC[C@H](Sc3ccccn3)C2)cc1 [compound 617, (S)-N-(2-aminophenyl)-4-(3-(pyridin-2-ylthio)pyrrolidin-1-yl)benzamide]
EC50 [1]: 2000 nM

IC50 (HCT116 cells; HCT-116, HCT116 cells): 3000 nM | IC50 (HDAC-1): 300 nM
Structure (SMILES): Nc1ccccc1NC(=O)c1ccc(N2CC[C@@H](Nc3cccnc3)C2)cc1 [compound 605, (R)-N-(2-aminophenyl)-4-(3-(pyridin-3-ylamino)pyrrolidin-1-yl)benzamide]
EC50 [1]: 12000 nM

IC50 (HCT116 cells; HCT-116, HCT116 cells): 800 nM | IC50 (HDAC-1): 60 nM
Structure (SMILES): Nc1ccccc1NC(=O)c1ccc(N2CC[C@H](Nc3cccnc3)C2)cc1 [compound 604, (S)-N-(2-aminophenyl)-4-(3-(pyridin-3-ylamino)pyrrolidin-1-yl)benzamide]
EC50 [1]: 8000 nM

IC50 (HCT116 cells; HCT-116, HCT116 cells): 700 nM | IC50 (HDAC-1): 400 nM
Structure (SMILES): Nc1ccccc1NC(=O)c1ccc(N2CC[C@H](Oc3cccnc3)C2)cc1 [compound 606, (S)-N-(2-aminophenyl)-4-(3-(pyridin-3-yloxy)pyrrolidin-1-yl)benzamide]
EC50 [1]: 7000 nM

IC50 (HCT116 cells; HCT-116, HCT116 cells): 300 nM | IC50 (HDAC-1): 90 nM
Structure (SMILES): COc1cc(O[C@H]2CCN(c3ccc(C(=O)Nc4ccccc4N)cc3)C2)cc(OC)c1OC [compound 613, (S)-N-(2-aminophenyl)-4-(3-(3,4,5-trimethoxyphenoxy)pyrrolidin-1-yl)benzamide]
EC50 [1]: 1000 nM

IC50 (HCT116 cells; HCT-116, HCT116 cells): 8000 nM | IC50 (HDAC-1): 100 nM
Structure (SMILES): Nc1ccccc1NC(=O)c1ccc(N2CC[C@H](Oc3ccc4c(c3)OCO4)C2)cc1 [compound 614, (S)-N-(2-aminophenyl)-4-(3-(benzo[d][1,3]dioxol-5-yloxy)pyrrolidin-1-yl)benzamide]
EC50 [1]: 1000 nM
